Source: patent US4950591A, “Membrane Na^+ channel protein and related therapeutic compounds” (priority 1987, dated 1990)

Columns and labels:
[1] = molecular target: T1, Na^+ channel in crude membrane preparation (trachea epithelial) (Bos taurus, UniProt A5D7U4+F1MJW3+P55270); assay: Amiloride inhibition of crude membrane preparation; format: biochemical, bovine
T1 construct: results for both the purified reconstituted channel protein and for the crude membrane preparation; from tissue; host or cells: trachea epithelial membranes, crude preparation (bovine)
T1 sequence (P55270 1-650): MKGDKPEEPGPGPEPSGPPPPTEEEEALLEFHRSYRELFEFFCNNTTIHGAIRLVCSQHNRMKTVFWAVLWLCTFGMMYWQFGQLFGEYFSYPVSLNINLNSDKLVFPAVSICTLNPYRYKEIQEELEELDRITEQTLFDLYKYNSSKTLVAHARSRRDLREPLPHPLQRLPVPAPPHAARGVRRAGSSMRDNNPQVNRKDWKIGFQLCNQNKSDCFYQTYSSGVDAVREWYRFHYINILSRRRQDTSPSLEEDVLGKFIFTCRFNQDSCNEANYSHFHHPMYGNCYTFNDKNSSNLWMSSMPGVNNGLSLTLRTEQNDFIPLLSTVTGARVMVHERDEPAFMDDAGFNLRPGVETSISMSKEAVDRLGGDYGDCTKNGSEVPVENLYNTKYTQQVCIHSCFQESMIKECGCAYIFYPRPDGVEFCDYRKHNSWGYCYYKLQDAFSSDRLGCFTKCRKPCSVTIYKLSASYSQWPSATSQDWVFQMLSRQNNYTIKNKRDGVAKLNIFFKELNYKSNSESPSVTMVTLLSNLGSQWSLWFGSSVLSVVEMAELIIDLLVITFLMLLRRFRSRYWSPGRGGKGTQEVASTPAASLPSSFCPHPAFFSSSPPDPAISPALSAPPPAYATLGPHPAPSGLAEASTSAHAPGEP
T1 sequence (A5D7U4 1-641): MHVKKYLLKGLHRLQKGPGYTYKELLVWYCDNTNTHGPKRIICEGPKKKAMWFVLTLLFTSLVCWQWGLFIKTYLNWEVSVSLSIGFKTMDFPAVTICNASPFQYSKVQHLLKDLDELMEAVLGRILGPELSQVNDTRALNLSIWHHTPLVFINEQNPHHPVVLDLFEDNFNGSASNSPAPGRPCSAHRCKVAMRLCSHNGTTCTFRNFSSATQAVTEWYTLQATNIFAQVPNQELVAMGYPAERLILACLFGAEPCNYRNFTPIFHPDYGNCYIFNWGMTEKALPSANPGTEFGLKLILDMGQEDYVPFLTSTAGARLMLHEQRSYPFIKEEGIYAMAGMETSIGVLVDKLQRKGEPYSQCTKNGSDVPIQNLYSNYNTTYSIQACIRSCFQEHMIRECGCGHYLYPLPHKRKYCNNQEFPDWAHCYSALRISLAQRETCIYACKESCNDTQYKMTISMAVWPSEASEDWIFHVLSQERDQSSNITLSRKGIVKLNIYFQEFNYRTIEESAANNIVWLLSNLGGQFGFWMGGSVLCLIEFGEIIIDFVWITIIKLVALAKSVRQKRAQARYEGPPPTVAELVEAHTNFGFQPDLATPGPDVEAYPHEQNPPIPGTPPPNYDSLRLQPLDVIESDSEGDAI
T1 sequence (F1MJW3 1-652): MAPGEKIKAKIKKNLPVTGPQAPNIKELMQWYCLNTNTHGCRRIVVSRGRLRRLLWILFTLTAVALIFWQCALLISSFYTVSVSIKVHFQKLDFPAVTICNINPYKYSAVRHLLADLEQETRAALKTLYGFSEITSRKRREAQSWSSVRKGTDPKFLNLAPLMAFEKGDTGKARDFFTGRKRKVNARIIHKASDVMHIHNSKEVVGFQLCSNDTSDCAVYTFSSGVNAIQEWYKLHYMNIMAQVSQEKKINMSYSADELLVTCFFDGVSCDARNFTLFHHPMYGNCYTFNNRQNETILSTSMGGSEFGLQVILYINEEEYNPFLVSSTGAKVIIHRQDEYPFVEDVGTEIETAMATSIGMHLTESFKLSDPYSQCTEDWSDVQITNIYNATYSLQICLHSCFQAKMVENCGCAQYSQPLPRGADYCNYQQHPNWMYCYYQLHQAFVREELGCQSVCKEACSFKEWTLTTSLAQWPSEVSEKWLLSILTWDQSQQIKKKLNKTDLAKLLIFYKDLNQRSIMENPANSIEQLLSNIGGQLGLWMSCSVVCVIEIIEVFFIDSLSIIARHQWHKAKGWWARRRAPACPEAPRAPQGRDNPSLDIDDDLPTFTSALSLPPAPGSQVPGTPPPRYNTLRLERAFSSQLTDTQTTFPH

[2] = molecular target: T2, purified Na^+ channel protein (Bos taurus, UniProt A5D7U4+F1MJW3+P55270); assay: Amiloride inhibition of purified reconstituted channel; format: biochemical, bovine
T2 construct: purifying a membrane protein from bovine kidney cortex and bovine trachea epithelia apical membranes; from tissue
T2 sequence (P55270 1-650): T1 sequence (P55270 1-650)
T2 sequence (A5D7U4 1-641): T1 sequence (A5D7U4 1-641)
T2 sequence (F1MJW3 1-652): T1 sequence (F1MJW3 1-652)
Method: By way of illustrative example, bovine kidney cortex cell membranes or bovine trachea apical cell membranes are collected and pooled until the pooled membranes contain about 100 mg of protein as determined by the Lowry method. The pooled membranes in 100 mM HEPES, pH 7.4, are centrifuged at 40,000 g for 30 minutes. The pelleted material was resuspended in 100 mM HEPES, pH 7.4, containing 3% sodium cholate (4.5-5.5 mg of membrane protein/3 ml of solution) containing in addition bacitracin (100 microgram/g), phenylmethylsulfonyl fluoride (0.5%) and iodoacetamide (1 mM). The mixture is chilled on ice for 60 minutes with occasional agitation, then centrifuged at 40,000 g for 30 minutes. The supernatant, containing the solubilized protein, may be purified immediately or frozen at -70° for later purification.
The solubilized protein preparation obtained from about 10 g of cell membrane is purified using 100 ml of the affinity gel described in Example 2. The protein solution and gel are stirred overnight in the cold. The gel is washed with 20 volumes of HEPES solution, pH 7.2, by filtration. The adsorbed protein is eluted with 10^-3 M amiloride in dilute saline containing 0.5% cholate by stirring for two hours. The elution was repeated and the combined eluates are dialyzed against 100 mM HEPES/1% sodium cholate for one week in the cold, changing buffers once or twice a day. […]

SMILES: N=C(N)NC(=O)c1nc(Cl)c(N)nc1N [amiloride, 3,5-diamino-N-(aminoiminomethyl)-6-chloropyrazinecarboxamide]
- IC50 [1]: 100 nM
- IC50 ([2]; Amiloride, IC50 (micromolar), PURIFIED, Table I, trachea epithelial, purified reconstituted channel protein): 70 nM
- IC50 ([2]; IC50 (amiloride sensitivity of purified channel), purified channel): ~70 nM
